Consider 1 compound from patent US12178902B1, “Methods and compositions for fluid drainage by Piezo ion channel activation” (UNIVERSITY OF SOUTHERN CALIFORNIA, priority 2020, dated 2024).

One assay deals with cultured LECs. The experiment in a line: Lymphatic valve gene expression in Yoda1-treated cultured LECs in the absence of OSS. The format is cell-based, human. The protocol: As Piezo1 was originally identified as a mechanically activated cation channel (21-25), we next asked whether another physical force, such as cell stretching, could stimulate Piezo1 and induce the molecular signature of lymphatic valves. To address this question, primary LECs were subjected to cyclic cell stretching (112%, 12 Hz) for 4, 8, and 24 hours in the absence of OSS, and the expression of the lymphatic valve genes were investigated. […] In addition, we investigated whether chemical activation of Piezo1 promotes lymphatic valve formation in animals. Prox1-EGFP mice were perinatally administrated at E18.5 and P0 with a chemical agonist of Piezo1, Yoda1 (30), and lymphatic valve formation in the small intestine, colon, and skin was evaluated at P1. […] We then asked whether Yoda1 could activate cultured LECs to upregulate lymphatic valve genes in the absence of OSS.

A further assay deals with T1, Piezo1 (Mus musculus, UniProt E2JF22).
T1 construct: from tissue; host or cells: Prox1-EGFP mice (pregnant females at E18.5 and pups at P0); lymphatic vessels of mesentery (jejunum, colon) and tail skin
T1 sequence (E2JF22 whole entry): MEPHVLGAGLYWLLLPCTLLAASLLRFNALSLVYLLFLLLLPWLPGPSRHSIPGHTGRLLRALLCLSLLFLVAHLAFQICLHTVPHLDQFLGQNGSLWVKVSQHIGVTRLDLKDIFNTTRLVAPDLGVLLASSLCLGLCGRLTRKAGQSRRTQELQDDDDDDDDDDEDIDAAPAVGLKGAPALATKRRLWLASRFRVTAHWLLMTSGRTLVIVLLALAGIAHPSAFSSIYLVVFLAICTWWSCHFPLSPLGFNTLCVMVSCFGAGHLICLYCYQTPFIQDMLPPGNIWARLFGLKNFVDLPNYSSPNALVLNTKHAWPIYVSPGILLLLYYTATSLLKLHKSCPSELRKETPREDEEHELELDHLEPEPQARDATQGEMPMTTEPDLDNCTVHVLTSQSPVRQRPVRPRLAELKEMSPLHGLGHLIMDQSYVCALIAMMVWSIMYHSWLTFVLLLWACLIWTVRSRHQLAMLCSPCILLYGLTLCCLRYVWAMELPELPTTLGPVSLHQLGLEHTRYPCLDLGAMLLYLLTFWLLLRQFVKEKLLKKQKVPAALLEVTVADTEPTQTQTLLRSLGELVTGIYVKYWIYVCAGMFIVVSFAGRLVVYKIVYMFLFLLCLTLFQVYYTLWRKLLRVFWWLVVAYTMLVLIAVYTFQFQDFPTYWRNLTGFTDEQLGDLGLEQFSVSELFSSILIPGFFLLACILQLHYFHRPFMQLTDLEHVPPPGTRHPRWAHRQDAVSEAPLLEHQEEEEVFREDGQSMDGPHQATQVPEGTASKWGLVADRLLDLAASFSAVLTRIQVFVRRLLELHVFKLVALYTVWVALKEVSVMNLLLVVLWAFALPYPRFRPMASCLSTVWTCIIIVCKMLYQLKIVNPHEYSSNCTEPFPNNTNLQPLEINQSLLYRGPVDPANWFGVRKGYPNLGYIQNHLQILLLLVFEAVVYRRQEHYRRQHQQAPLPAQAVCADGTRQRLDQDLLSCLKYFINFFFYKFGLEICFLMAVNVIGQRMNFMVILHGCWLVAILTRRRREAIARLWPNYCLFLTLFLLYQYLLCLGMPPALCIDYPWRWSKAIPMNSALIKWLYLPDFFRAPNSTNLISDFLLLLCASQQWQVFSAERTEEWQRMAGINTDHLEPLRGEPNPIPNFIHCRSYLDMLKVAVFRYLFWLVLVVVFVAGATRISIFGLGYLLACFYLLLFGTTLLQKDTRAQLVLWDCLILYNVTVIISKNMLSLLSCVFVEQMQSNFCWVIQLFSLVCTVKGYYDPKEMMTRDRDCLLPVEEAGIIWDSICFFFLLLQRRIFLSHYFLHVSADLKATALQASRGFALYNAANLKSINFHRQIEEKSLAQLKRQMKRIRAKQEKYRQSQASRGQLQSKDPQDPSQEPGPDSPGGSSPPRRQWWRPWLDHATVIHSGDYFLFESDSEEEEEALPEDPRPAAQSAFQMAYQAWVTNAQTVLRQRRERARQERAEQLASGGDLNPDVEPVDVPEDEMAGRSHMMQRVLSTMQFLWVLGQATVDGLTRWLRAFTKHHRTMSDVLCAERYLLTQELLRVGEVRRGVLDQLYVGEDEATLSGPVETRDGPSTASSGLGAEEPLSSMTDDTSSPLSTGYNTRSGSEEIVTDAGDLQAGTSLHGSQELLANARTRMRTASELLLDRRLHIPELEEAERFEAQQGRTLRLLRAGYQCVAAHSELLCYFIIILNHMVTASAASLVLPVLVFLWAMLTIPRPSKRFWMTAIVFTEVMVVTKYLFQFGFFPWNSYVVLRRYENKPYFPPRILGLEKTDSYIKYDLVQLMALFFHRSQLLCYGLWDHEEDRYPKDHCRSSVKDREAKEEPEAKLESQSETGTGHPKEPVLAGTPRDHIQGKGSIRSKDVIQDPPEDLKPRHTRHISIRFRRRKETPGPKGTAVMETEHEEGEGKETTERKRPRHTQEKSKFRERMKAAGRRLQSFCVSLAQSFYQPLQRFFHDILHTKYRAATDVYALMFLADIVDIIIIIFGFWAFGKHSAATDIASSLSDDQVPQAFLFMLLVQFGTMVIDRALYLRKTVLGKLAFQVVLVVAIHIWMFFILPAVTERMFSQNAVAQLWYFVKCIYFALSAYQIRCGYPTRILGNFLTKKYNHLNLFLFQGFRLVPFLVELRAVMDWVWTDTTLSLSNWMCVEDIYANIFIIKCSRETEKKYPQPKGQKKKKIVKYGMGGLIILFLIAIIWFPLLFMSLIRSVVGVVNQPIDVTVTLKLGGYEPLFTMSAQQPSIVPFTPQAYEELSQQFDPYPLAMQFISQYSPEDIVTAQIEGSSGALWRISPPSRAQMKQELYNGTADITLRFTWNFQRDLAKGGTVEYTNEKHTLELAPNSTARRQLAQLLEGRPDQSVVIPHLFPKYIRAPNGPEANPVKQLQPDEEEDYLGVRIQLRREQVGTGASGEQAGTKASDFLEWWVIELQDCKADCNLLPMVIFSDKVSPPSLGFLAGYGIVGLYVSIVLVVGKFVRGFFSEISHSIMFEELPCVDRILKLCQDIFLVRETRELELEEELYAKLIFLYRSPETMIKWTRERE
Put plainly: Lymphatic valve formation in Prox1-EGFP mice after perinatal Yoda1 administration. The following applies: Yoda1 70 μg/kg intraperitoneal at E18.5 and P0, evaluated at P1, mesenteries of the jejunum and the colon, tail skin. The format is in vivo. The source says:
All mouse works have been approved by the Institutional Animal Care and Use Committee, University of Southern California (PI: YK Hong). Sources of the mice are: Prox1-EGFP (Tg(Prox1-EGFP)KY221Gsat, Mutant Mouse Resource and Research Centers) (35), Prox1-tdTomato (Tg(Prox1-tdTomato)TA76Gsat/Mmucd, Mutant Mouse Resource and Research Centers) (28), Prox1-CreER^T2 (a kind gift from Dr. Taija Makinen, Uppsala University, Sweden) (17), Piezo1^fl/fl (Piezo1^tm2.1Apat/J. Jackson Laboratory) (29). Mice were maintained in mixed outbred backgrounds. […]
Pregnant Prox1-EGFP females at E18.5 were intraperitoneal injected with vehicle or Yoda1 (70 μg/kg). […] Equivalent anatomic locations were selected for capturing images in the vehicle and Yoda1-treated groups, and their lymphatic valve formation was investigated and quantified (Supplemental FIG. 5).
As Piezo1 was originally identified as a mechanically activated cation channel (21-25), we next asked whether another physical force, such as cell stretching, could stimulate Piezo1 and induce the molecular signature of lymphatic valves. […] Prox1-EGFP mice were perinatally administrated at E18.5 and P0 with a chemical agonist of Piezo1, Yoda1 (30), and lymphatic valve formation in the small intestine, colon, and skin was evaluated at P1. […]

Entries after “also recorded” stand apart in the source; their conditions may differ.

On to `Clc1cccc(Cl)c1CSc1nnc(-c2cnccn2)s1` [Yoda1, 2-[(2,6-dichlorophenyl)methylsulfanyl]-5-pyrazin-2-yl-1,3,4-thiadiazole], for which, in the assay on cultured LECs, the FOXC2 expression entry is reported as “rather downregulated”. For the same compound, in the assay with cultured LECs (Piezo1-dependent), the CX37 expression entry is “upregulates”, the GATA2 expression result is given as “upregulates”, the ITGA9 expression result is on record as “upregulates” and the LAMA5 expression result is “upregulates”. Moreover, the lymphatic valve formation entry on Piezo1 is recorded as “significantly expedited; also recorded: accelerated lymphatic valve formation”.
